Data taken from patent US7897358B2, “Canine transient receptor potential V2 (cTRPV2) and methods of screening for TRPV2 channel modulators” (Janssen Pharmaceutica N.V., priority 2007, dated 2011).

Key:
mouse TRPV2 = target: T1, mouse TRPV2 (Mus musculus, UniProt Q9WTR1); details: cited from earlier work
T1 sequence (Q9WTR1 1-756): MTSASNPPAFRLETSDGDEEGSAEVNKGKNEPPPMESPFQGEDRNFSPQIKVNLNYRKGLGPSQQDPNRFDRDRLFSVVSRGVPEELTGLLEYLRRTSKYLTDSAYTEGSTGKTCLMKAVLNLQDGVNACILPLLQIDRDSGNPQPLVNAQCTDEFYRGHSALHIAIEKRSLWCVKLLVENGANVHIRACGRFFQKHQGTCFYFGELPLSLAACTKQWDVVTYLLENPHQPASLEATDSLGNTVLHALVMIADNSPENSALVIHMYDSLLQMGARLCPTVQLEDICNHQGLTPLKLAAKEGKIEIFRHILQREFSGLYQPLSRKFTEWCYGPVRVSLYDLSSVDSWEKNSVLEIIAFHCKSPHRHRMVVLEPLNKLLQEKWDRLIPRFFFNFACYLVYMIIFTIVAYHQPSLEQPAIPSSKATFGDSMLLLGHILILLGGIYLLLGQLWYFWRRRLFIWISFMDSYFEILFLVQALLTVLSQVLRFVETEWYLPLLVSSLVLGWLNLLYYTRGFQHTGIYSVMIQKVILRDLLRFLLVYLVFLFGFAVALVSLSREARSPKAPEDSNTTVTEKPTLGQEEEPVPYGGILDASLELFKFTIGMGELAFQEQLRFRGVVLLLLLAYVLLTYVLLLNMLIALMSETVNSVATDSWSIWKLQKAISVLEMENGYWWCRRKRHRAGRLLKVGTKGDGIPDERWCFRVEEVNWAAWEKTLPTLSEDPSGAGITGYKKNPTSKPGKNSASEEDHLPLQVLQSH

rat TRPV2 = target: T2, rat TRPV2 (Rattus norvegicus, UniProt Q9WUD2); details: cited from earlier work
T2 sequence (Q9WUD2 1-761): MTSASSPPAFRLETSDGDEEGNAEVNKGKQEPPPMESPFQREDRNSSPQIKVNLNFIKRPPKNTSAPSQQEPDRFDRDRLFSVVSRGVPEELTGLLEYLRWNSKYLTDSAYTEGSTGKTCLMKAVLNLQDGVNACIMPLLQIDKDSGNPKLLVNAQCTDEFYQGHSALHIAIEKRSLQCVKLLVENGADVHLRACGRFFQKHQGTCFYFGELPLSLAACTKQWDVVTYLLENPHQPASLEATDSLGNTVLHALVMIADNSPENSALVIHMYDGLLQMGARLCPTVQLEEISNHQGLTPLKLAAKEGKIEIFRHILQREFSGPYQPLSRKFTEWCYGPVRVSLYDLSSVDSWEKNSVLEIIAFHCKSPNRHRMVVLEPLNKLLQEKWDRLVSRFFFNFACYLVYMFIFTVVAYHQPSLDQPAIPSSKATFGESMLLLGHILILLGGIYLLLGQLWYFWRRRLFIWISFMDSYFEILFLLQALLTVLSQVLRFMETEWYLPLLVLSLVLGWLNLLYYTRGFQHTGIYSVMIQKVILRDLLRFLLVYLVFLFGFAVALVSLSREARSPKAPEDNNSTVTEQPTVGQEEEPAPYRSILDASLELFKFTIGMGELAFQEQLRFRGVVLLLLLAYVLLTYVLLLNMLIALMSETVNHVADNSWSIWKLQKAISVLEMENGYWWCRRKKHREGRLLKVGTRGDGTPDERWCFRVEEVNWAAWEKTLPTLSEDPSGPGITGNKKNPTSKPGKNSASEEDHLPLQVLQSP

human TRPV2 = target: T3, human TRPV2 (Homo sapiens, UniProt Q9Y5S1); details: cited from earlier work
T3 sequence (Q9Y5S1 1-764): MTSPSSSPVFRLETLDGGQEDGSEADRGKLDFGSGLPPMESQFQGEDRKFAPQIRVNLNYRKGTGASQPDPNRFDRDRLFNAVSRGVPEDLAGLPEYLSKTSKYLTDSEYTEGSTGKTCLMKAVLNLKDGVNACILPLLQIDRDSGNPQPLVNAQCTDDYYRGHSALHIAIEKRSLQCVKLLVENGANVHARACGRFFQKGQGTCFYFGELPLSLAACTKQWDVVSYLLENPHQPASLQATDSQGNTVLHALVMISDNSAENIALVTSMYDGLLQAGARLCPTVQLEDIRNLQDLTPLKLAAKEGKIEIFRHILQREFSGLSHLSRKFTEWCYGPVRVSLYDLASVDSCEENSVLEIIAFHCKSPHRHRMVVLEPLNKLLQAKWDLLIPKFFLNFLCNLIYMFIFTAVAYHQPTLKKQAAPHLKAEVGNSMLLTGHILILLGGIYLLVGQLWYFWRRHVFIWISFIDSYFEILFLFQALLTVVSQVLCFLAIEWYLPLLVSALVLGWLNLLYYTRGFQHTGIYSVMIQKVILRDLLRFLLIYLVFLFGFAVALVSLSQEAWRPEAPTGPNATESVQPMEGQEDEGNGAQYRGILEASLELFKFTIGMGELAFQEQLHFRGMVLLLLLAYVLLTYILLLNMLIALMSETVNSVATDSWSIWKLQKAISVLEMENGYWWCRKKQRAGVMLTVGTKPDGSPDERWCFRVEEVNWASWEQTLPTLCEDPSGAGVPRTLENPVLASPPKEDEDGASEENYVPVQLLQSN

canine TRPV2 (cTRPV2) = assay: Calcium influx functional assay (FLIPR) in HEK293 cells transiently transfected with cTRPV2; type: cell-based; details: recombinant cTRPV2-expressing host cells
Description: The expression construct, cTRPV2/pcDNA3.1 was then transfected into human embryonic kidney cells (HEK293, ATCC CRL-1573) with FuGene6 transfection reagent (Roche, Indianapolis, Ind.), according to the vendor's protocol. TRPV2-expressing HEK293 cells were cultured in DMEM supplemented with 10% fetal bovine serum, 100 units/ml penicillin and 100 μg/ml streptomycin at 37° C. with 5% CO2, and were analyzed using a calcium influx assay 48-72 hr. post-transfection.
Transiently transfected cells were seeded in 384-well plates at a density of 1×10^4 cells/well and incubated overnight at 37° C. The following day, the cells were loaded with buffer and calcium dye, as recommended by the vendor (Molecular Devices, Sunnyvale, Calif.), in a final volume of 40 μl and incubated for 30 minutes at room temperature. The fluorescence intensity was measured by FLIPR before, during and after the addition of Δ^9-THC, which was added to the cells at a final concentration of 100 μM.

SMILES: CCCCCc1cc(O)c2c(c1)OC(C)(C)[C@@H]1CCC(C)=C[C@@H]21 [Δ^9-THC, Δ^9-tetrahydrocannabinol]
- activation of mouse TRPV2 (selective agonist) (mouse TRPV2): activate
- activation of rat TRPV2 (selective agonist) (rat TRPV2): activate
- activation of human TRPV2 (selective agonist) (human TRPV2): activate
- response of the recombinant TRPV2 cell system to agonist (canine TRPV2 (cTRPV2)): responded to Δ^9-THC in a dose-dependent manner
